Experimental data as given in article PMC10115881, “Disrupting the α-synuclein-ESCRT interaction with a peptide inhibitor mitigates neurodegeneration in preclinical models of Parkinson’s disease” (Nature Communications, 2023).

How the values were obtained:
[1] = tested on: LAMP1; assay: LAMP1 levels in HEK293 cells; type: cell-based, human; settings: A53T a-syn overexpression
Procedure: Infected or transfected cells were scraped from six-well dishes and lysed with lysis buffer (50 mM Tris-HCl pH 7.4, 1% Nonidet P-40, 150 mM NaCl, 1 mM EDTA, 1× protease inhibitor mixture (Sigma)) for 30 min at 4 °C. The insoluble pellet was removed following a 10,000 rpm spin for 5 min at 4 °C. Lysates were analyzed by SDS-PAGE/immunoblot using 4–20% Mini-PROTEAN Tris-glycine gels (Bio-Rad), transferred to polyvinylidene fluoride (PVDF) membranes, and blocked in 5% milk containing PBS-Tween-20 (0.1%) for 1 h. PVDF membranes were then incubated with specified primary antibodies followed by incubation with horseradish peroxidase-conjugated secondary antibodies (anti-mouse HRP-linked, Cell Signaling, catalog #7076, 1:5000; anti-rabbit HRP-linked, Cell Signaling, catalog #7074, 1:5000) and detected using enhanced chemiluminescence (GE Healthcare). […]
(§1) After fixation, cells were permeabilized with 0.2% Triton-X-100 for 15 min, washed three times with PBS and then incubated with blocking solution (1% BSA, 22.52 mg/mL glycine, 0.1% Tween-20 in PBS or 0.4% saponin, 1% BSA, and 5% goat or donkey serum in PBS) for 1 h. […] Following another three washes with PBS, nuclei were counterstained with DAPI (ThermoFisher) and then coverslips were mounted on slides using Dako fluorescence mounting medium (Agilent) and sealed using clear nail varnish.

[2] = tested on: endogenous a-syn; assay: Endogenous a-syn immunofluorescence in rat cortical neurons; type: cell-based
Description: Pregnant rats (E17) of the Sprague-Dawley strain were purchased from Envigo. Embryos were surgically removed from the mothers and cortices dissected in Hanks Balanced salt solution (Gibco). The meninges were removed, and cells were dissociated using a papain dissociation system (Worthington) before being resuspended in Neurobasal medium A supplemented with antibiotic-antimycotic solution (Gibco), L-glutamine substitute (GlutaMAX™; Gibco) and factor B27 (Gibco). […]
as §1
Confocal images of immunofluorescent staining were acquired with a Zeiss LSM880 confocal microscope equipped with 405, 488, 555, and 639 nm laser lines. All images were taken within the linear range at constant gain and pinhole settings at optimal resolution settings determined by the software. […]

[3] = tested on: endolysosomal flux in HEK293 cells; assay: Endolysosomal flux assay, flow cytometry, HEK293 cells; type: cell-based, human; settings: A53T a-syn
Procedure: Flux via the endolysosomal pathway was measured with the Lysosome Intracellular Activity Assay Kit which was purchased from Abcam (ab234622) and used according to the manufacturer’s instructions. The kit provides a proprietary lysosome-specific self-quenched substrate which has low background fluorescence, high signal-to-background ratio, and is pH insensitive. In the assay, the substrate is taken up by cells and acts as endocytic cargo which is degraded within an endolysosomal vesicle. Following degradation, the fluorescence signal recovered from the substrate is proportional to the intracellular lysosomal activity. The activity can be measured by fluorescence microscopy or FACS. The assay was performed with HEK293T cells or SNCA triplication fibroblasts (obtained from NINDS Human Genetics Resource Center DNA and Cell Line Repository; NINDS Repository sample number ND27760). Cells were maintained in DMEM supplemented with 10% FBS and 1% pen/strep/glutamine. Cell medium was replaced with fresh medium containing DMSO, Leupeptin, or Bafilomycin A1 and incubated for 1 h at 37 °C with 5% CO2. Self-quenched substrate was added into each condition and incubated for 1 h (HEK293T cells) or overnight (SNCA triplication fibroblasts) at 37 °C with 5% CO2. […] For HEK293T cells, cells were resuspended in PBS containing DMSO or Leupeptin and analyzed by FACS. […]

[4] = tested on: Δa-syn(103–140); assay: Truncated a-syn (103-140 lacking) HA immunofluorescence in rat cortical neurons; type: cell-based; settings: a-syn lacking amino acids 103–140
Description: Adeno-associated virus (AAV) of a 1/2 serotype was used to express A53T a-syn (AAV-A53T), a truncated version of A53T a-syn lacking amino acids 103–140 (Δa-syn(103–140)), and WT a-syn, fused to either the N-terminal half of YFP (AAV-V1S) or the C-terminal half of YFP (AAV-SV2), all under the control of the CAG promoter, a hybrid of the chicken beta-actin (CBA) promoter fused with the cytomegalovirus (CMV) immediate early enhancer sequence (GeneDetect Ltd.)[46].
Pregnant rats (E17) of the Sprague-Dawley strain were purchased from Envigo. Embryos were surgically removed from the mothers and cortices dissected in Hanks Balanced salt solution (Gibco). […]
as §1

In the case of DEEIERQLKALG [PDpep1.3], the “Effect on LAMP1 levels, HEK293” value [1] was “LAMP1 levels were restored”, the “Effect on endogenous a-syn fluorescence” value [2] was “reduced fluorescence intensity” and the “Effect on endolysosomal flux” value [3] was “returned the fluorescent signal to baseline”. The “Effect on truncated a-syn levels” value [4] was “did not reduce levels of this truncated a-syn”.
